Results published in patent US9708314B2, “Heterocyclic amide compound” (NISSAN CHEMICAL INDUSTRIES, LTD., priority 2013, dated 2017).
“And” between values parts separate entries of the source, which are not always exact repeats. Identical values can stand only once.

What was measured:
Format in all cases: in vivo
Stellaria media = experiment: Test Example 4: herbicidal effect by application to foliage (diluvial soil, plastic box); conditions: 320 g/ha; for P (Stellaria media) herbicidal effect grade: foliage application
Summary of the method: (§1)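 Greenhouse plants (25° C. to 30° C., 14 d, diluvial soil) receive a foliar spray of water-diluted emulsifiable formulation at defined g/ha. Grading after 3 weeks uses a six-step herbicidal-ratio scale, with 4 covering 70% to <90% and 1 covering 5% to <20%.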

Amaranthus retroflexus = experiment: as above; conditions: 320 g/ha; for N (Amaranthus retroflexus) herbicidal effect grade: foliage application
Summary of the method: as §1

Avena fatua = experiment: as above; conditions: 320 g/ha; for I (Avena fatua) herbicidal effect grade: foliage application
Summary of the method: as §1

Alopecurus myosuroides = experiment: as above; conditions: 320 g/ha; for J (Alopecurus myosuroides) herbicidal effect grade: foliage application
Summary of the method: as §1

Setaria viridis = experiment: as above; conditions: 320 g/ha; for G (Setaria viridis) herbicidal effect grade: foliage application
Summary of the method: as §1

Lolium multiflorum Lam. = experiment: as above; conditions: 320 g/ha; for K (Lolium multiflorum Lam.) herbicidal effect grade: foliage application
Summary of the method: as §1

Apera spica-venti. = experiment: as above; conditions: 320 g/ha; for L (Apera spica-venti.) herbicidal effect grade: foliage application
Summary of the method: as §1

Chenopodium album = experiment: as above; conditions: 320 g/ha; for O (Chenopodium album) herbicidal effect grade: foliage application
Summary of the method: as §1

Digitaria ciliaris = experiment: as above; conditions: 320 g/ha; for F (Digitaria ciliaris) herbicidal effect grade: foliage application
Summary of the method: as §1

Abutilon theophrasti = experiment: as above; conditions: 320 g/ha; for M (Abutilon theophrasti) herbicidal effect grade: foliage application
Summary of the method: as §1

[1] = tested on: Echinochloa crus-galli var. crus-galli; experiment: as above; conditions: 320 g/ha; for H (Echinochloa crus-galli var. crus-galli) herbicidal effect grade: foliage application
Summary of the method: as §1

Veronica persica = experiment: as above; conditions: 320 g/ha; for R (Veronica persica) herbicidal effect grade: foliage application
Summary of the method: as §1

Monochoria vaginalis = experiment: Test Example 2: herbicidal activity, application during weed generation in submerged conditions; conditions: Eighteenth Table; application herbicide amount 320 g/ha
Summary of the method: (§2)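 Seeds were sown together in alluvial soil kept under 4 cm of water and grown at 25 °C to 30 °C. Once plants reached the one- to two-leaf stage, the diluted emulsion was applied to the water surface at a predetermined g/ha amount, and effects were rated 0–5 after three weeks.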

Scirpus juncoides = experiment: as above; conditions: Eighteenth Table; application herbicide amount 320 g/ha
Summary of the method: as §2

[2] = tested on: Echinochloa oryzacola Vasing.; experiment: as above; conditions: Eighteenth Table; application herbicide amount 320 g/ha
Summary of the method: as §2

C=CCn1nnnc1NC(=O)c1ccc(C(F)(F)F)n2c(C(C)C)nnc12 [2-091]
herbicidal effect, P (Stellaria media) (Stellaria media; application to foliage): 5 (Herbicidal ratio of 90% or more (almost completely withered))
herbicidal effect, N (Amaranthus retroflexus) (Amaranthus retroflexus; application to foliage): 4 (Herbicidal ratio of 70% or more and less than 90%)
herbicidal effect, I (Avena fatua) (Avena fatua; application to foliage): 3 (Herbicidal ratio of 40% or more and less than 70%)
herbicidal effect, J (Alopecurus myosuroides) (Alopecurus myosuroides; application to foliage): 2 (Herbicidal ratio of 20% or more and less than 40%)
herbicidal effect, G (Setaria viridis) (Setaria viridis; application to foliage): 5 (Herbicidal ratio of 90% or more (almost completely withered))
herbicidal effect, K (Lolium multiflorum Lam.) (Lolium multiflorum Lam.; application to foliage): 3 (Herbicidal ratio of 40% or more and less than 70%)
herbicidal effect, L (Apera spica-venti.) (Apera spica-venti.; application to foliage): 3 (Herbicidal ratio of 40% or more and less than 70%)
herbicidal effect, O (Chenopodium album) (Chenopodium album; application to foliage): 5 (Herbicidal ratio of 90% or more (almost completely withered))
herbicidal effect, F (Digitaria ciliaris) (Digitaria ciliaris; application to foliage): 5 (Herbicidal ratio of 90% or more (almost completely withered))
herbicidal effect, M (Abutilon theophrasti) (Abutilon theophrasti; application to foliage): 4 (Herbicidal ratio of 70% or more and less than 90%)
herbicidal effect, H (Echinochloa crus-galli var. crus-galli) ([1]; application to foliage): 5 (Herbicidal ratio of 90% or more (almost completely withered))
herbicidal effect, R (Veronica persica) (Veronica persica; application to foliage): 4 (Herbicidal ratio of 70% or more and less than 90%)
C (Monochoria vaginalis) herbicidal ratio grade (Monochoria vaginalis): 4 (Herbicidal ratio of 70% or more and less than 90%)
B (Scirpus juncoides) herbicidal ratio grade (Scirpus juncoides): 5 (Herbicidal ratio of 90% or more (almost completely withered))
A (Echinochloa oryzicola Vasing.) herbicidal ratio grade [2]: 4 (Herbicidal ratio of 70% or more and less than 90%)

Cn1nnnc1NC(=O)c1ccc(C(F)(F)F)n2c(-c3ccc(Cl)nc3)nnc12 [2-060]
P (Stellaria media) herbicidal effect grade (Stellaria media): 5 (Herbicidal ratio of 90% or more (almost completely withered))
N (Amaranthus retroflexus) herbicidal effect grade (Amaranthus retroflexus): 5 (Herbicidal ratio of 90% or more (almost completely withered))
I (Avena fatua) herbicidal effect grade (Avena fatua): 4 (Herbicidal ratio of 70% or more and less than 90%)
J (Alopecurus myosuroides) herbicidal effect grade (Alopecurus myosuroides): 3 (Herbicidal ratio of 40% or more and less than 70%)
G (Setaria viridis) herbicidal effect grade (Setaria viridis): 5 (Herbicidal ratio of 90% or more (almost completely withered))
K (Lolium multiflorum Lam.) herbicidal effect grade (Lolium multiflorum Lam.): 3 (Herbicidal ratio of 40% or more and less than 70%)
L (Apera spica-venti.) herbicidal effect grade (Apera spica-venti.): 4 (Herbicidal ratio of 70% or more and less than 90%)
O (Chenopodium album) herbicidal effect grade (Chenopodium album): 5 (Herbicidal ratio of 90% or more (almost completely withered))
F (Digitaria ciliaris) herbicidal effect grade (Digitaria ciliaris): 5 (Herbicidal ratio of 90% or more (almost completely withered))
M (Abutilon theophrasti) herbicidal effect grade (Abutilon theophrasti): 5 (Herbicidal ratio of 90% or more (almost completely withered))
H (Echinochloa crus-galli var. crus-galli) herbicidal effect grade [1]: 5 (Herbicidal ratio of 90% or more (almost completely withered))
R (Veronica persica) herbicidal effect grade (Veronica persica): 5 (Herbicidal ratio of 90% or more (almost completely withered))
C (Monochoria vaginalis) herbicidal ratio grade (Monochoria vaginalis): 5 (Herbicidal ratio of 90% or more (almost completely withered))
B (Scirpus juncoides) herbicidal ratio grade (Scirpus juncoides): 4 (Herbicidal ratio of 70% or more and less than 90%) and 3 (Herbicidal ratio of 40% or more and less than 70%)
A (Echinochloa oryzicola Vasing.) herbicidal ratio grade [2]: 5 (Herbicidal ratio of 90% or more (almost completely withered))

CC(C)c1nnc2c(C(=O)Nc3nnnn3-c3ccccc3)ccc(C(F)(F)F)n12 [2-073]
P (Stellaria media) herbicidal effect grade (Stellaria media): 4 (Herbicidal ratio of 70% or more and less than 90%)
N (Amaranthus retroflexus) herbicidal effect grade (Amaranthus retroflexus): 3 (Herbicidal ratio of 40% or more and less than 70%)
I (Avena fatua) herbicidal effect grade (Avena fatua): 1 (Herbicidal ratio of 5% or more and less than 20%)
J (Alopecurus myosuroides) herbicidal effect grade (Alopecurus myosuroides): 0 (Herbicidal ratio of 5% or less (almost no effect))
G (Setaria viridis) herbicidal effect grade (Setaria viridis): 1 (Herbicidal ratio of 5% or more and less than 20%)
K (Lolium multiflorum Lam.) herbicidal effect grade (Lolium multiflorum Lam.): 1 (Herbicidal ratio of 5% or more and less than 20%)
L (Apera spica-venti.) herbicidal effect grade (Apera spica-venti.): 0 (Herbicidal ratio of 5% or less (almost no effect))
O (Chenopodium album) herbicidal effect grade (Chenopodium album): 5 (Herbicidal ratio of 90% or more (almost completely withered))
F (Digitaria ciliaris) herbicidal effect grade (Digitaria ciliaris): 1 (Herbicidal ratio of 5% or more and less than 20%)
M (Abutilon theophrasti) herbicidal effect grade (Abutilon theophrasti): 3 (Herbicidal ratio of 40% or more and less than 70%)
H (Echinochloa crus-galli var. crus-galli) herbicidal effect grade [1]: 4 (Herbicidal ratio of 70% or more and less than 90%)
R (Veronica persica) herbicidal effect grade (Veronica persica): 2 (Herbicidal ratio of 20% or more and less than 40%)
C (Monochoria vaginalis) herbicidal ratio grade (Monochoria vaginalis): 3 (Herbicidal ratio of 40% or more and less than 70%)
B (Scirpus juncoides) herbicidal ratio grade (Scirpus juncoides): 2 (Herbicidal ratio of 20% or more and less than 40%)
A (Echinochloa oryzicola Vasing.) herbicidal ratio grade [2]: 2 (Herbicidal ratio of 20% or more and less than 40%)

Cc1cc(-c2nnc3c(C(=O)Nc4nnnn4C)ccc(C(F)(F)F)n23)n(C)n1 [2-062]
P (Stellaria media) herbicidal effect grade (Stellaria media): 5 (Herbicidal ratio of 90% or more (almost completely withered))
N (Amaranthus retroflexus) herbicidal effect grade (Amaranthus retroflexus): 5 (Herbicidal ratio of 90% or more (almost completely withered))
I (Avena fatua) herbicidal effect grade (Avena fatua): 5 (Herbicidal ratio of 90% or more (almost completely withered))
J (Alopecurus myosuroides) herbicidal effect grade (Alopecurus myosuroides): 4 (Herbicidal ratio of 70% or more and less than 90%)
G (Setaria viridis) herbicidal effect grade (Setaria viridis): 5 (Herbicidal ratio of 90% or more (almost completely withered))
K (Lolium multiflorum Lam.) herbicidal effect grade (Lolium multiflorum Lam.): 5 (Herbicidal ratio of 90% or more (almost completely withered))
L (Apera spica-venti.) herbicidal effect grade (Apera spica-venti.): 5 (Herbicidal ratio of 90% or more (almost completely withered))
O (Chenopodium album) herbicidal effect grade (Chenopodium album): 5 (Herbicidal ratio of 90% or more (almost completely withered))
F (Digitaria ciliaris) herbicidal effect grade (Digitaria ciliaris): 5 (Herbicidal ratio of 90% or more (almost completely withered))
M (Abutilon theophrasti) herbicidal effect grade (Abutilon theophrasti): 5 (Herbicidal ratio of 90% or more (almost completely withered))
H (Echinochloa crus-galli var. crus-galli) herbicidal effect grade [1]: 5 (Herbicidal ratio of 90% or more (almost completely withered))
R (Veronica persica) herbicidal effect grade (Veronica persica): 5 (Herbicidal ratio of 90% or more (almost completely withered))
C (Monochoria vaginalis) herbicidal ratio grade (Monochoria vaginalis): 5 (Herbicidal ratio of 90% or more (almost completely withered))
B (Scirpus juncoides) herbicidal ratio grade (Scirpus juncoides): 4 (Herbicidal ratio of 70% or more and less than 90%)
A (Echinochloa oryzicola Vasing.) herbicidal ratio grade [2]: 5 (Herbicidal ratio of 90% or more (almost completely withered))
